What all share (assay type): cell-based
For experiment [1], the target named is T1, BTK (Homo sapiens, UniProt Q06187). As to the kind of experiment: BTK ligand competition assay in Ramos cells (Western blotting for BTK). Further details: host or cells: Ramos. The following applies: 100 nM, 24 hours, Western blot. For orientation: Immunoblotting shows a protein as a band on a membrane.
Procedure: Ramos cells were incubated overnight, and then the indicated compounds were added and incubated for 24 hours, followed by Western blotting for BTK degradation.
Ramos cells were incubated overnight, and then the indicated compounds were added and incubated for 24 hours, followed by Western blotting for BTK degradation (FIG. 7).
The target in experiment [2] is T1, BTK. Kind of experiment: TMT-based quantitative proteomics in Mino cells, BTK. Also on record: host or cells: Mino. The following applies: 200 nM, 4 h. The method, then:
(§1) Panel a. […] Panel b. […] Panel c. […] Panel d-e. […] Panel g.
(§2) Two million of Mino cells were treated with DMSO or 200 nM of PS-2 for 4 hours in biological triplicates and cells were harvested by centrifugation (200×g, 4° C., 5 min). Lysis buffer (100 mM Triethylammonium bicarbonate (TEAB, Thermo Fisher Scientific, Cat. No. 90114), 2% SDS) was added to the cell pellets and homogenized with a microtip sonicator (Branson) to achieve a cell lysate with a protein concentration of ˜2 mg mL^−1. Protein concentration was determined using BCA assay (Pierce, Cat. No. 23225) and normalized to 1 mg mL^−1. One hundred μg of protein for each sample were reduced and alkylated with 10 mM Tris(2-carboxyethyl) phosphine hydrochloride (TCEP, Sigma, Cat. No. C4706) and 17 mM iodoacetamide (IAA, Sigma, Cat. No. 16125-5G), followed by digestion with trypsin (1:20, enzyme: protein, Thermo Fisher Scientific, Cat. No. 90058) for 16 h shaking at 37° C. […]
(§3) Next, tandem mass tagging (TMT)-based quantitative proteomic profiling was performed to evaluate the degradation specificity of PS-2. […] Quantitative proteomics employing TMT chemical labeling coupled with LC/MS/MS enabled the detection of >2,500 unique proteins without fractionation (FIG. 4f). […]

For experiment [3], the target named is T1, BTK. As to the kind of experiment: Western blotting for BTK in Mino cells. Also on record: host or cells: Mino. The note with it: up to 1000 nM, 24 h, Western blot. The gist of the method: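 Mino cells were given serial 5-fold dilutions of compound (1,000-1.6 nM) for 24 h, then lysed. Immunoblots of 30 μg protein probed BTK, with band intensity normalized to β-actin. […]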

Another experiment relates to Mino cells. As to the kind of experiment: TMT-based quantitative proteomics in Mino cells, degradation specificity over the proteome. The note with it: 200 nM, 4 h, >2,500 proteins. The method, then:
as §1, §2, §3

Experiment [4] addresses T1, BTK. As to the kind of experiment: Western blotting for BTK in Ramos cells. Further details: host or cells: Ramos. The following applies: Ramos cells, 40, 200 and 1000 nM, 24 h, Western blot. The method, then: CC-220 is a IKZF1/3 degrader developed by Celgene and used for comparison.
In contrast, PS-3, whose warhead is further reduced compared with PS-2, loses its ability to function as either a BTK degrader or a potent IKZF1/3 molecular glue. To confirm this observation, BTK degradation induced by PS-1, PS-2, and PS-3 was tested in both a human B lymphocyte cell line Ramos and mouse BALB/c B cell lymphoma line A20, with DD-03-171 from the Gray group as a positive control (FIG. 5).

For experiment [5], the target named is T2, BTK-Hibit (Homo sapiens, UniProt Q06187).
T2 construct: endogenous in cells; host or cells: Ramos (BTK-Hibit knock-in)
T2 sequence (Q06187 2-659 limits assumed): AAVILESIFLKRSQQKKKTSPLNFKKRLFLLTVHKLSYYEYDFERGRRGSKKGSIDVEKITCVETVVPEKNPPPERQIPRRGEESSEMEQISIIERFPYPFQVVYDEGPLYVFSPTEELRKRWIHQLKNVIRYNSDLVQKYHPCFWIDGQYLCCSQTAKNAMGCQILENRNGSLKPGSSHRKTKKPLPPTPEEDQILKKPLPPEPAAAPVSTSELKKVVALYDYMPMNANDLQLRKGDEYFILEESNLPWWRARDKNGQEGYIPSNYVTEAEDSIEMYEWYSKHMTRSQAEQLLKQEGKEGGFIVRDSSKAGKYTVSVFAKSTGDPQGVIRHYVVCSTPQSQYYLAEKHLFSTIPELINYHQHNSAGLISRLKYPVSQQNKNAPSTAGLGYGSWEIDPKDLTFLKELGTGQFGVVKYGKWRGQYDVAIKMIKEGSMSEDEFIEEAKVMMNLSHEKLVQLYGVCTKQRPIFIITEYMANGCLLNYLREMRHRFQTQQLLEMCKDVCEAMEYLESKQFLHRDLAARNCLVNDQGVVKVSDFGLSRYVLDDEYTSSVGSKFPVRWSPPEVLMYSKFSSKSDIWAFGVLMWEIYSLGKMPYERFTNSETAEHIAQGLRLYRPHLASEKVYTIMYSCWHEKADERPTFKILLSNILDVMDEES
T2 sequence (Q96SW2 whole entry, further chain): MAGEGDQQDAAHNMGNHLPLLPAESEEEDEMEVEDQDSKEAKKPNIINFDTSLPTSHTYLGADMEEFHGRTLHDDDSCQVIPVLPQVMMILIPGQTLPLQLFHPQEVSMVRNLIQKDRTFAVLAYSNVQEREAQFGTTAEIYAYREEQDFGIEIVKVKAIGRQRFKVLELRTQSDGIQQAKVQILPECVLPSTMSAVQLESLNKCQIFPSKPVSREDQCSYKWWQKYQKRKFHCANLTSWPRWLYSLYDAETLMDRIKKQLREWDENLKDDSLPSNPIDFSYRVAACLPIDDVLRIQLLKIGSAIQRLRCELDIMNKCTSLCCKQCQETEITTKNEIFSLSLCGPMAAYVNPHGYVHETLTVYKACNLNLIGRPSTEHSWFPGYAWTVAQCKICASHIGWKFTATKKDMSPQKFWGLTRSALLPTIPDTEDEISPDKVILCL
T2 sequence (Q16531 whole entry partner): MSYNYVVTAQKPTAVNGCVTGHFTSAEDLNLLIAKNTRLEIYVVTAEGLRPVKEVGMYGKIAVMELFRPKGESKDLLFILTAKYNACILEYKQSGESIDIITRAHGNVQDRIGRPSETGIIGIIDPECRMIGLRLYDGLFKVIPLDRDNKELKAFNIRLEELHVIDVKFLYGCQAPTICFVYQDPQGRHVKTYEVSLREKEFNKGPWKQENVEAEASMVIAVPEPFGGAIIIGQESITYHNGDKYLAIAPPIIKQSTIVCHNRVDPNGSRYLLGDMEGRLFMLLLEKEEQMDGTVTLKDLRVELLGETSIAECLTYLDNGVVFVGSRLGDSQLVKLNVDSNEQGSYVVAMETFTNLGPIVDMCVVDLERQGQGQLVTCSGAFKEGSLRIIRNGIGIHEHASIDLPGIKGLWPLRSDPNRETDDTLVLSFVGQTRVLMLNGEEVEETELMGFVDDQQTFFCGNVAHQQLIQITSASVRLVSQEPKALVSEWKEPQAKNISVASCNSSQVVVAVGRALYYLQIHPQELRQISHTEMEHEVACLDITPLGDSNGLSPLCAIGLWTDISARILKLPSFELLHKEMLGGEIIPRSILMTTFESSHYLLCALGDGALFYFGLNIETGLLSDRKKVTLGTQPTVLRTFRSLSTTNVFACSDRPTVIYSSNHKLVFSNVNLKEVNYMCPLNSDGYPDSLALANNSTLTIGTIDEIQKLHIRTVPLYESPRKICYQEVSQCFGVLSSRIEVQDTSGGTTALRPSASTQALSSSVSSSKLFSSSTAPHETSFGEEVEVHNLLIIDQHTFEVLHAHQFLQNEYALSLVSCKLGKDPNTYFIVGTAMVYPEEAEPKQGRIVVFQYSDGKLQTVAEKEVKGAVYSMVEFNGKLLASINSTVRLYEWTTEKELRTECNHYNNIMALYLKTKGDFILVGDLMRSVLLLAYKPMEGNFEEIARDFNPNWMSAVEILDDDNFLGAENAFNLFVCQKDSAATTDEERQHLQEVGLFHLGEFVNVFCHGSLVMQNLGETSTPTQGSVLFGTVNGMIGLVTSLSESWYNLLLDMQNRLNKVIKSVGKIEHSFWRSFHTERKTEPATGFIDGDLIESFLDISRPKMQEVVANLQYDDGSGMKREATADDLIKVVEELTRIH
Kind of experiment: BTK degradation in BTK-Hibit knock-in Ramos cells. The note with it: 24 hours. The method, then:
(§4) Ramos cells were treated with the indicated compounds at the indicated concentrations for 24 hours. Nurix and DD-03-171 were used as the controls.
(§5) To further illustrate the BTK degradation ability of PS-2, BTK-Hibit knock-in Ramos cells were treated with PS-2 for 24 hours, using Nurix and DD-03171 as controls (FIG. 6).

Experiment [6] deals with T3, BTK-Hibit (Homo sapiens, UniProt Q06187+Q96SW2).
T3 construct: endogenous in cells; host or cells: Ramos (BTK-Hibit knock-in)
T3 sequence (Q06187 2-659 limits assumed): as the sequence (Q06187 2-659 limits assumed) above
T3 sequence (Q96SW2 whole entry): as the sequence (Q96SW2 whole entry, further chain) above
T3 sequence (Q16531 whole entry partner): as the sequence (Q16531 whole entry partner) above
Kind of experiment: BTK degradation in BTK-Hibit knock-in Ramos cells. The note with it: 24 hours. The method, then: as §4, §5

Another experiment addresses T4, IKZF1 (Homo sapiens, UniProt Q13422+Q96SW2).
T4 construct: host or cells: Mino
Kind of experiment: TMT-based quantitative proteomics in Mino cells, IKZF1. The note with it: 200 nM, 4 h. The method, then:
as §1, §2, §3

T1 sequence (Q06187 whole entry): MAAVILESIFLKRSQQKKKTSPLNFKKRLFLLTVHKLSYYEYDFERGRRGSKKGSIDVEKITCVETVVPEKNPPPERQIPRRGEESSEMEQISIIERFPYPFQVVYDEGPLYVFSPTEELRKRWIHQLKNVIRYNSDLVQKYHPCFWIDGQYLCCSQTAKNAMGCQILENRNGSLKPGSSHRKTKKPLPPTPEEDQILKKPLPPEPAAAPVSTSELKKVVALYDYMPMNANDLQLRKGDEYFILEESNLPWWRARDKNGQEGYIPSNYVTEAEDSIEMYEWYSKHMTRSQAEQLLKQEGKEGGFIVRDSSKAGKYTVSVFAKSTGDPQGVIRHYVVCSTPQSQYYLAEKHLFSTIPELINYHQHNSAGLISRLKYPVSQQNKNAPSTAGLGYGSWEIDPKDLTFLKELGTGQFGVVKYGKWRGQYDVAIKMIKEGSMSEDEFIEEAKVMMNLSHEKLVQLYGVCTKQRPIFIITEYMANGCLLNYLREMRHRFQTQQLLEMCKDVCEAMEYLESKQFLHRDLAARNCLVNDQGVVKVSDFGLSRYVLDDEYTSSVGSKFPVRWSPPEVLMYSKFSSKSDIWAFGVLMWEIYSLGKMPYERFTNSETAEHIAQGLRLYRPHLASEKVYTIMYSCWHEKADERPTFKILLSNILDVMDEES
T4 sequence (Q13422 whole entry): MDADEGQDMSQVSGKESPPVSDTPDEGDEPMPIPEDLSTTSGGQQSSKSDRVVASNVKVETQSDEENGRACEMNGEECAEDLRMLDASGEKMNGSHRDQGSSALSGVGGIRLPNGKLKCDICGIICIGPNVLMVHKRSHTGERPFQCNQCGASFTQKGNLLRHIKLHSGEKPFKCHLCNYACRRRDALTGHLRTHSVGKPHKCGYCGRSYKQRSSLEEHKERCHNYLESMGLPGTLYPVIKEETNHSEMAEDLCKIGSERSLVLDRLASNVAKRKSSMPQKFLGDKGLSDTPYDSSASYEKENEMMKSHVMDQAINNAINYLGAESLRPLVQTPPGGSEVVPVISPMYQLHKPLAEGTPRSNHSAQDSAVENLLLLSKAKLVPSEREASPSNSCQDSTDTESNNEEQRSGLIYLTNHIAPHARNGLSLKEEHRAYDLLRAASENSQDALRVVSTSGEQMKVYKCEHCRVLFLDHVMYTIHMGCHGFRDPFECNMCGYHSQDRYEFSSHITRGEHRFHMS
T4 sequence (Q96SW2 whole entry): as the sequence (Q96SW2 whole entry, further chain) above
T4 sequence (Q16531 whole entry partner): as the sequence (Q16531 whole entry partner) above

The term DC50 denotes the midpoint of the concentration-degradation curve. What is called Dmax is the largest share of the target that was removed. A lower Dmax goes with a partial loss of target. Consider `O=C1CCC(N2C(=O)c3cccc(NCC(=O)N4CCN(c5ccc(Nc6nccc(Oc7ccccc7)n6)cc5)CC4)c3C2=O)C(=O)N1` (centres unmarked) [PS-2, 2-(2,6-Dioxopiperidin-3-yl)-4-((2-oxo-2-(4-(4-((4-phenoxypyrimidin-2-yl)amino)phenyl)piperazin-1-yl)ethyl)amino)isoindoline-1,3-dione], for which the “BTK degradation at 100 nM” value at BTK [1] is reported as “Most BTK protein was degraded”. Further, the “BTK protein level change” value on BTK [2] is listed as “downregulated”. The “BTK degradation (result in words)” value is listed as “potently induces BTK degradation” on BTK [3] and “potent BTK degradation” at BTK [4]. The “other proteins downregulated by at least 25% with statistical significance” value in the experiment with Mino cells was “No other proteins are downregulated”. At BTK-Hibit [5], this molecule had a DC50 of 3.75 nM. Besides, the Dmax on BTK-Hibit [6] was 84.7%. Moreover, the “degradation of IKZF1” value on IKZF1 is about 50%.

Source of the values: patent US20240383910A1, “SMALL MOLECULE BTK DEGRADERS AND METHODS OF USE THEREOF” (Baylor College of Medicine, priority 2023, published 2024).
